One data set deals with T1, AHR (Homo sapiens, UniProt P35869).
T1 construct: other cell line with a DRE-luciferase reporter stably transfected; endogenous in cells; host or cells: Human HepG2 liver carcinoma AhR-Lucia reporter cells
T1 sequence (P35869 11-848): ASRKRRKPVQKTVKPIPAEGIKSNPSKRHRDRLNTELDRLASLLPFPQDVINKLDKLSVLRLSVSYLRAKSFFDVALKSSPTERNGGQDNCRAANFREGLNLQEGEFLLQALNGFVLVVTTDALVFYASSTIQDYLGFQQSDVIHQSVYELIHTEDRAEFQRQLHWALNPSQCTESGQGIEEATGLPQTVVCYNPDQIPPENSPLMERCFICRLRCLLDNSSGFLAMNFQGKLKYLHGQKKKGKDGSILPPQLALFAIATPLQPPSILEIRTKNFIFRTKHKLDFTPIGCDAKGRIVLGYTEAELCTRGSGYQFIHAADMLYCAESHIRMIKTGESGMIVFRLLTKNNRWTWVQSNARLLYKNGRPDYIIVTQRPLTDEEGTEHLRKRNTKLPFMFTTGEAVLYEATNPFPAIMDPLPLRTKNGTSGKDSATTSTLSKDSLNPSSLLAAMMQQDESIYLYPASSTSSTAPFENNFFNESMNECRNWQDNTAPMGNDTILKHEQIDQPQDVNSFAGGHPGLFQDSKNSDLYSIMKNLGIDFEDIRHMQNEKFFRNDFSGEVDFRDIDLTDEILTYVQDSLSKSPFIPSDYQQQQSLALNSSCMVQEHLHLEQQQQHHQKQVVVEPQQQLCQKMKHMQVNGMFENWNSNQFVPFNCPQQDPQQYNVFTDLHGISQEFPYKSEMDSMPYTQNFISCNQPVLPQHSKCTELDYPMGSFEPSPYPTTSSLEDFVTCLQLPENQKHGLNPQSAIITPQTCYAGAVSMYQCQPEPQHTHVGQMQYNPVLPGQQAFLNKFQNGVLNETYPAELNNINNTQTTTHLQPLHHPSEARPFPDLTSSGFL
Briefly: DRE-Luciferase Reporter Assay (HepG2 AhR-Lucia reporter cells). It is filed as cell-based. The following applies: luciferase activity with AHR activating ligand at EC50, read-out: HepG2-Luc IC50. From the text:
AHR binds to Dioxin Responsive Elements (DRE) upstream of genes that it activates. One measure of AHR activity is activation of a reporter gene, such as luciferase, downstream of one or multiple DRE elements. Luciferase activity will reflect activation and inhibition of AHR in the cells expressing his reporter. 20000 Human HepG2 liver carcinoma—AhR-Lucia reporter cells or Human HT29 colon adenocarcinoma—AhR reporter cells or other cell line with a DRE-luciferase reporter stably transfected were plated in Eagle's Minimal Essential Medium, 10% heat-inactivated FBS, 1× non-essential amino acids Pen-Strep (10,000 U/mL) and Normocin (100 ug/mL) in plates (96-well, 384-well or other plates) and incubated overnight at 37° C. in a CO2 incubator and treated with and without AhR antagonists at a log dilution starting at 100 uM.
After 1 hr that cells were plated an AHR activating ligand, such as TCDD, kynurenine, ITE (2-(1H-indole-3-ylcarbonyl)-4-thiazolecarboxylic methyl ester), VAF347, BNF (beta-naphthoflavone), FICZ (6-formylindolo(3,2-b) carbazole) or other AHR ligands at their specific EC50 concentration, were added to the cells with or without AHR antagonist.
Cells were incubated for 24 or 48 hours or another time point and then, supernatant was analyzed for determination of luciferase activity as a read-out of the AHR activation or inhibition. Luciferase was measured with the commercial kit QUANTI-Luc™ assay solution kit from Invivogen following the manufacturer's instructions.
The level of luciferase with only agonist ligand added was the maximum signal while the luciferase with […] was the minimum signal. IC50 values were determined as the concentration which inhibits half of the luciferase activity.
(In general: In a reporter assay the amount or activity of a reporter protein is the signal.)

The nature of data set [1]: Liver Microsome Stability Assay, human. It is filed as in vitro ADME. The following applies: human liver microsomes, with NADPH, 1 μM compound, read-out: Human liver microsome clearance. On the procedure: The master solution was prepared according to Table 6.
Two separate experiments were performed as follows.
With Cofactors (NADPH): 25 μL of 10 mM NADPH was added to the incubations. The final concentrations of microsomes and NADPH were 0.5 mg/mL and 1 mM, respectively. The final concentration of microsomes was 0.5 mg/mL. The mixture was pre-warmed at 37° C. for 10 minutes. The reaction was started with the addition of 2.5 μL of 100 μM control compound or test compound solutions. Verapamil was used as positive control in this study. The final concentration of test compound or control compound was 1 μM. The incubation solution was incubated in water batch at 37° C. Aliquots of 25 μL were taken from the reaction solution at 0.5, 5, 15, 30 and 60 minutes. The reaction was stopped by the addition of 5 volumes of cold acetonitrile with IS (200 nM caffeine and 100 nM tolbutamide). Samples were centrifuged at 3, 220 g for 40 minutes. Aliquot of 100 μL of the supernatant was mixed with 100 μL of ultra-pure H2O and then used for LC-MS/MS analysis.
Data Analysis: All calculations were carried out using Microsoft Excel. Peak areas were determined from extracted ion chromatograms. The slope value, k, was determined by linear regression of the natural logarithm of the remaining percentage of the parent drug vs. incubation time curve.
The in vitro half-life (in vitro t1/2) was determined from the slope value: in vitro t1/2=−([…]/k)
Conversion of the in vitro t1/2 (min) into the in vitro intrinsic clearance (in vitro CLint, in μL/min/mg protein) was done using the following equation (mean of duplicate determinations):
The calculations of Scaled-up CLint (mL/min/kg), Predicted CLH (mL/min/kg) and EH were done using the following equation: Scaled-up CLint=(0.693/t1/2)×(1/(microsomal protein concentration(0.5 mg/mL)))×Scaling Factors; Predicted CLH=(QH×Scaled-up CLint×fub)/(QH+Scaled-up CLint×fub); EH=Predicted CLH/QH • where QH is the hepatic blood flow (mL/min/kg) (Table 7), • fub is the fraction of unbound drug in plasma which is assumed to be 1. […]
For orientation: Liver microsomes are a subcellular fraction often used to study metabolism.

The nature of data set [2]: Solubility Determination Assay (PBS, LC-MS/MS). It counts as physicochemical. The following applies: aqueous buffer, kinetic from dmso stock. On the procedure: The stock solutions of test compounds and control compound progesterone were prepared in DMSO at the concentrations of 10 mM. 15 μL of stock solution (10 mM) of each sample was placed in order into their proper 96-well rack. 485 μL of PBS pH 1.6 and pH 7.4 were added into each vial of the cap-less Solubility Sample plate. The assay was performed in singlet. One stir stick was added to each vial and then the vial was sealed using a molded PTFE/Silicone plug. […] After completion of the 2 hours, plugs were removed and the stir sticks were removed using a big magnet. The samples from the Solubility Sample plate were transferred into the filter plate. Using the Vacuum Manifold, all the samples were filtered. An aliquot of 5 μL was taken from the filtrate followed by addition of 495 μL of a mixture of H2O and acetonitrile containing internal standard (1:1). A certain proportion of ultrapure water was used to dilute the diluent according to the peak shape. The dilution factor was changed according to the solubility values and the LC-MS signal response.
From the 10 mM DMSO STD plate, 6 μL was transferred into the remaining empty plate, and then 194 μL of DMSO were added to that plate to have a STD concentration of 300 μM. From the 300 μM DMSO STD plate, 5 μL were transferred into the remaining empty plate, and then 495 μL of a mixture of H2O and acetonitrile containing internal standard (1:1) were added to that plate to have a final STD concentration of 3 μM. A certain proportion of ultrapure water was used to dilute the diluent according to the peak shape. The concentrations of the standard samples were changed according to the LC-MS signal response.
The plate was placed into the well plate autosampler. The samples were evaluated by LC-MS/MS analysis.
All calculations were carried out using Microsoft Excel.
The filtrate was analyzed and quantified against a standard of known concentration using LC coupled with mass spectral peak identification and quantitation. Solubility values of the test compound and control compound were calculated as follows: […]
Any value of the compounds that was not within the specified limits was rejected and the experiment was repeated.
“+++” indicates a solubility value equal to or greater than 10 μM, “++” indicates a solubility value between 1 and 10 μM, and “+” indicates a solubility value less than 1 μM.

Setting [3] is: PBS pH 1.6, 25° C., read-out: Aq. Solubility at pH = 1.6.
Setting [4] is: PBS pH 7.4, 25° C., read-out: Aq. Solubility at pH = 7.4.

Our source for the IC50, CLint scaled and solubility values is US12570638B2, “Fused imidazole derivatives as AHR antagonists” (Sail Biomedicines, Inc., priority 2020, dated 2026).

The structures appear in SMILES notation. ≈ marks a conversion by molar mass, not a printed value. Like-named read-outs stand apart in the source and are kept apart here.

As for `Cc1ccccc1-c1nc2ccc(NC(=O)c3ccnn3C)cc2[nH]1` [B, 1-methyl-N-(2-(o-tolyl)-1H-benzo[d]imidazol-6-yl)-1H-pyrazole-5-carboxamide], on AHR, the IC50 – broadly, the concentration needed to halve the response being measured – lay in the range of 0.1 to 0.5 µM.

Take `Cn1nccc1C(=O)Nc1ccc2nc(-c3ccccc3C(F)F)[nH]c2c1` [Compound C, N-(2-(2-(difluoromethyl)phenyl)-1H-benzo[d]imidazol-6-yl)-1-methyl-1H-pyrazole-5-carboxamide]: the CLint scaled at 1 μM in data set [1] was less than 10 mL/min/kg. Further, on AHR, the IC50 lay within 0.1 to 0.5 µM. The solubility (in general, the dissolved amount per volume that the medium holds) at 2 h was greater than 10 µM in data set [2] (setting [3]) and 1 to 10 µM (≈ 0.367 to 3.67 µg/mL) in data set [2] (setting [4]).

For `Cn1ncnc1C(=O)Nc1ccc2nc(-c3ccccc3C(F)F)[nH]c2c1` [D, N-(2-(2-(difluoromethyl)phenyl)-1H-benzo[d]imidazol-6-yl)-1-methyl-1H-1,2,4-triazole-5-carboxamide], at AHR, the IC50 is less than 0.1 µM. Also, the solubility at 2 h in data set [2] (setting [3]) is greater than 10 µM; in data set [2] (setting [4]) it was 1 to 10 µM (≈ 0.368 to 3.68 µg/mL).

In the case of `Cc1ccccc1-c1nc2ccc(NC(=O)c3ncnn3C)cc2[nH]1` [G, 1-methyl-N-(2-(o-tolyl)-1H-benzo[d]imidazol-6-yl)-1H-1,2,4-triazole-5-carboxamide], at AHR, the IC50 was in the range of 0.1 to 0.5 µM.
